Measured values reported in BigSolDB 2.1.

Cc1onc(-c2c(Cl)cccc2Cl)c1C(=O)N[C@@H]1C(=O)N2[C@@H]1SC(C)(C)[C@@H]2C(=O)[O-].O.[Na+]
solubility (mole fraction)
Settings	288.15 K	293.15 K	298.15 K	303.15 K	308.15 K	313.15 K	318.15 K
in acetone	0.000605	0.000795	0.00101	0.00128	0.00161	0.00198	0.00244
in acetonitrile	0.000144	0.000155	0.000174	0.000184	0.000209	0.000221	0.000246
in ethanol	0.00146	0.00167	0.00187	0.00211	0.00237	0.00267	0.00292
in ethyl acetate	0.000548	0.000686	0.000843	0.001	0.00123	0.00149	0.00178
in isopropanol	0.000409	0.000524	0.000618	0.000683	0.000854	0.000958	0.00118
in methanol	0.0418	0.0476	0.0536	0.06	0.0657	0.0768	0.0853
